Assay: Aqueous solubility
Type: physicochemical

- aqueous solubility: low aqueous solubility
Compound: CO[C@@H]1CCN(c2nccc(Nc3cc4c(C(C)C)ccc(N5C[C@H](CS(C)(=O)=O)[C@H]5C)c4cn3)n2)C[C@@H]1F [Compound (I), N-(2-((3S,4R)-3-fluoro-4-methoxypiperidin-1-yl)pyrimidin-4-yl)-5-isopropyl-8-((2R,3S)-2-methyl-3-((methylsulfonyl)methyl)azetidin-1-yl)isoquinolin-3-amine]
